Assay results from patent publication US8324248B2, “Piperidine derivatives as NK3 receptor antagonists” (Hoffmann-La Roche Inc., priority 2009, dated 2012).

How the values were obtained:
[1] = target: T1, recombinant human NK3 receptor (Homo sapiens, UniProt P29371); test: [3H]SR142801 competition binding assay, hNK3 receptor binding; conditions: [3H]SR142801 displacement; membranes from HEK293 cells transiently expressing recombinant human NK3 receptor; Ki by Cheng-Prussoff from IC50
T1 construct: expressed in transfected cells; host or cells: HEK293 cells (transient expression), membranes
T1 sequence (P29371 1-465): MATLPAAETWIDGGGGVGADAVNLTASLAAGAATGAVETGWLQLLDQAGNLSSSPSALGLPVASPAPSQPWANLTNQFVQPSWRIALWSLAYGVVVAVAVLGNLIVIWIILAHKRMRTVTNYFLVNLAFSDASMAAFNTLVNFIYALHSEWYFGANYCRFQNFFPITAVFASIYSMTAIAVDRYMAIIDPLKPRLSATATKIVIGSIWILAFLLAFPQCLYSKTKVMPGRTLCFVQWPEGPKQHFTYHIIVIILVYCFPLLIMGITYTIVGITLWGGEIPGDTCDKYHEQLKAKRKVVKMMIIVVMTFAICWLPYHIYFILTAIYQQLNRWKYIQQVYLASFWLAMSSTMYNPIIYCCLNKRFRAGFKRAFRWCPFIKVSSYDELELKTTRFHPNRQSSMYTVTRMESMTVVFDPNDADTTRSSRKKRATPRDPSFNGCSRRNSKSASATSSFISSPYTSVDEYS
Description: The compounds were investigated in accordance with the tests given hereinafter. [^3H]SR142801 competition binding assay hNK3 receptor binding experiment were performed using [^3H]SR142801 (Catalog No. TRK1035, specific activity: 74.0 Ci/mmol, Amersham, GE Healthcare UK limited, Buckinghamshire, UK) and membrane isolated from HEK293 cells transiently expressing recombinant human NK3 receptor. After thawing, the membrane homogenates were centrifuged at 48,000×g for 10 min at 4° C., the pellets were resuspended in the 50 mM Tris-HCl, 4 mM MnCl2, 1 μM phosphoramidon, 0.1% BSA binding buffer at pH 7.4 to a final assay concentration of 5 μg protein/well. For inhibition experiments, membranes were incubated with [^3H]SR142801 at a concentration equal to KD value of radioligand and 10 concentrations of the inhibitory compound (0.0003-10 μM) (in a total reaction volume of 500 μl) for 75 min at room temperature (RT). At the end of the incubation, membranes were filtered onto unitfilter (96-well white microplate with bonded GF/C filter preincubated 1 h in 0.3% PEI+0.3% BSA, Packard BioScience, Meriden, Conn.) with a Filtermate 196 harvester (Packard BioScience) and washed 4 times with ice-cold 50 mM Tris-HCl, pH 7.4 buffer. Nonspecific binding was measured in the presence of 10 μM SB222200 for both radioligands. The radioactivity on the filter was counted (5 min) on a Packard Top-count microplate scintillation counter with quenching correction after addition of 45 μl of microscint 40 (Can berra Packard S. A., Zürich, Switzerland) and shaking for 1 h. Inhibition curves were fitted according to the Hill equation: y=100/(1+(x/IC50)^nH), where nH=slope factor using Excel-fit 4 software (Microsoft). IC50 values were derived from the inhibition curve and the affinity constant (Ki) values were calculated using the Cheng-Prussoff equation Ki=IC50/(1+[L]/KD) where [L] is the concentration of radioligand and KD is its dissociation constant at the receptor, derived from the saturation isotherm. All experiments were performed in duplicate and the mean±standard error (SEM) of the individual Ki values was calculated.

[2] = phase II trial, cited from earlier work

C[C@H](Oc1ccc(C#N)cn1)[C@H]1CCN(C(=O)C2CCN(c3ccc(C#N)cn3)CC2)C[C@@H]1c1ccc(Cl)cc1 [Example 27, 4-{(3S,4S)-3-(4-Chloro-phenyl)-4-[(S)-1-(5-cyano-pyridin-2-yloxy)-ethyl]-piperidine-1-carbonyl}-3,4,5,6-tetrahydro-2H-[1,2′]bipyridinyl-5′-carbonitrile]
Ki [1]: 0.3 nM

C[C@H](Oc1ccc(C#N)cn1)[C@H]1CCN(C(=O)N2CCN(S(C)(=O)=O)CC2)C[C@@H]1c1ccc(Cl)cc1 [Example 28, 6-{(S)-1-[(3S,4S)-3-(4-Chloro-phenyl)-1-(4-methanesulfonyl-piperazine-1-carbonyl)-piperidin-4-yl]-ethoxy}-nicotinonitrile]
Ki [1]: 3 nM

C[C@H](Oc1ccc(C#N)cn1)[C@H]1CCN(C(=O)c2ccc(-c3ccc(F)cc3)cc2)C[C@@H]1c1ccc(Cl)cc1 [Example 29, 6-{(8)-1-[(3S,4S)-3-(4-Chloro-phenyl)-1-(4′-fluoro-biphenyl-4-carbonyl)-piperidin-4-yl]-ethoxy}-nicotinonitrile]
Ki [1]: 7.7 nM

N#Cc1ccc(N2CCC(C(=O)N3CC[C@H](COc4ccc(Cl)cn4)[C@@H](c4ccccc4)C3)CC2)nc1 [Example 47, 4-[(3S,4S)-4-(5-Chloro-pyridin-2-yloxymethyl)-3-phenyl-piperidine-1-carbonyl]-3,4,5,6-tetrahydro-2H-[1,2′]bipyridinyl-5′-carbonitrile]
Ki [1]: 9.9 nM

C[C@H](Oc1ccc(Cl)c(Cl)c1)[C@H]1CCN(C(=O)C2CCN(c3ccc(C#N)cn3)CC2)C[C@@H]1c1ccc(Cl)cc1 [Example 49, 4-{(3S,4S)-3-(4-Chloro-phenyl)-4-[(S)-1-(3,4-dichloro-phenoxy)-ethyl]-piperidine-1-carbonyl}-3,4,5,6-tetrahydro-2H-[1,2′]bipyridinyl-5′-carbonitrile]
Ki [1]: 5.5 nM

C[C@H](Oc1ccc(C(F)(F)F)cc1)[C@H]1CCN(C(=O)C2CCN(c3ccc(C#N)cn3)CC2)C[C@@H]1c1ccc(Cl)cc1 [Example 50, 4-{(3S,4S)-3-(4-Chloro-phenyl)-4-[(S)-1-(4-trifluoromethyl-phenoxy)-ethyl]-piperidine-1-carbonyl}-3,4,5,6-tetrahydro-2H-[1,2′]bipyridinyl-5′-carbonitrile]
Ki [1]: 1.3 nM

C[C@H](Oc1ccc(C#N)cc1)[C@H]1CCN(C(=O)C2CCN(c3ccc(C#N)cn3)CC2)C[C@@H]1c1ccc(Cl)cc1 [Example 51, 4-{(3S,4S)-3-(4-Chloro-phenyl)-4-[(S)-1-(4-cyano-phenoxy)-ethyl]-piperidine-1-carbonyl}-3,4,5,6-tetrahydro-2H-[1,2′]bipyridinyl-5′-carbonitrile]
Ki [1]: 1.9 nM

C[C@H](Oc1ccc(F)cn1)[C@H]1CCN(C(=O)C2CCN(c3ccc(C#N)cn3)CC2)C[C@@H]1c1ccc(Cl)cc1 [Example 52, 4-{(3S,4S)-3-(4-Chloro-phenyl)-4-[(S)-1-(5-fluoro-pyridin-2-yloxy)-ethyl]-piperidine-1-carbonyl}-3,4,5,6-tetrahydro-2H-[1,2′]bipyridinyl-5′-carbonitrile]
Ki [1]: 0.6 nM

C[C@H](Oc1ccc(F)cc1)[C@H]1CCN(C(=O)C2CCN(c3ccc(C#N)cn3)CC2)C[C@@H]1c1ccc(Cl)cc1 [Example 53, 4-{(3S,4S)-3-(4-Chloro-phenyl)-4-[(S)-1-(4-fluoro-phenoxy)-ethyl]-piperidine-1-carbonyl}-3,4,5,6-tetrahydro-2H-[1,2′]bipyridinyl-5′-carbonitrile]
Ki [1]: 0.6 nM

C[C@H](Oc1ccc(F)c(F)c1)[C@H]1CCN(C(=O)C2CCN(c3ccc(C#N)cn3)CC2)C[C@@H]1c1ccc(Cl)cc1 [Example 54, 4-{(3S,4S)-3-(4-Chloro-phenyl)-4-[(S)-1-(3,4-difluoro-phenoxy)-ethyl]-piperidine-1-carbonyl}-3,4,5,6-tetrahydro-2H-[1,2′]bipyridinyl-5′-carbonitrile]
Ki [1]: 1.7 nM

C[C@H](Oc1ccc(Cl)cc1)[C@H]1CCN(C(=O)C2CCN(c3ccc(C#N)cn3)CC2)C[C@@H]1c1ccc(Cl)cc1 [Example 55, 4-[(3S,4S)-4-[(S)-1-(4-Chloro-phenoxy)-ethyl]-3-(4-chloro-phenyl)-piperidine-1-carbonyl]-3,4,5,6-tetrahydro-2H-[1,2′]bipyridinyl-5′-carbonitrile]
Ki [1]: 0.9 nM

C[C@H](Oc1cccc(F)c1)[C@H]1CCN(C(=O)C2CCN(c3ccc(C#N)cn3)CC2)C[C@@H]1c1ccc(Cl)cc1 [Example 56, 4-{(3S,4S)-3-(4-Chloro-phenyl)-4-[(S)-1-(3-fluoro-phenoxy)-ethyl]-piperidine-1-carbonyl}-3,4,5,6-tetrahydro-2H-[1,2′]bipyridinyl-5′-carbonitrile]
Ki [1]: 3.8 nM

Cc1ccc(O[C@@H](C)[C@H]2CCN(C(=O)C3CCN(c4ccc(C#N)cn4)CC3)C[C@@H]2c2ccc(Cl)cc2)cc1 [Example 57, 4-[(3S,4S)-3-(4-Chloro-phenyl)-4-((S)-1-p-tolyloxy-ethyl)-piperidine-1-carbonyl]-3,4,5,6-tetrahydro-2H-[1,2′]bipyridinyl-5′-carbonitrile]
Ki [1]: 1.4 nM

Cc1ccc(O[C@@H](C)[C@H]2CCN(C(=O)C3CCN(c4ccc(C#N)cn4)CC3)C[C@@H]2c2ccc(Cl)cc2)nc1 [Example 58, 4-{(3S,4S)-3-(4-Chloro-phenyl)-4-[(S)-1-(5-methyl-pyridin-2-yloxy)-ethyl]piperidine-1-carbonyl}-3,4,5,6-tetrahydro-2H-[1,2′]bipyridinyl-5′-carbonitrile]
Ki [1]: 2 nM

C[C@H](Oc1ncc(F)cn1)[C@H]1CCN(C(=O)C2CCN(c3ccc(C#N)cn3)CC2)C[C@@H]1c1ccc(Cl)cc1 [Example 61, 4-{(3S,4S)-3-(4-Chloro-phenyl)-4-[(S)-1-(5-fluoro-pyrimidin-2-yloxy)-ethyl]-piperidine-1-carbonyl}-3,4,5,6-tetrahydro-2H-[1,2′]bipyridinyl-5′-carbonitrile]
Ki [1]: 1.5 nM

C[C@H](Oc1ccc(Cl)cn1)[C@H]1CCN(C(=O)C2CCN(c3ccc(C#N)cn3)CC2)C[C@@H]1c1ccc(F)c(F)c1 [Example 62, 4-[(3S,4S)-4-[(S)-1-(5-Chloro-pyridin-2-yloxy)-ethyl]-3-(3,4-difluoro-phenyl)-piperidine-1-carbonyl]-3,4,5,6-tetrahydro-2H-[1,2′]bipyridinyl-5′-carbonitrile]
Ki [1]: 0.2 nM

C[C@H](Oc1ccc(Cl)cn1)[C@H]1CCN(C(=O)C2CCN(C(=O)C3(C)CC3)CC2)C[C@@H]1c1ccc(F)c(F)c1 [Example 63, {4-[(3S,4S)-4-[(S)-1-(5-Chloro-pyridin-2-yloxy)-ethyl]-3-(3,4-difluoro-phenyl)-piperidine-1-carbonyl]piperidin-1-yl}-(1-methyl-cyclopropyl)-methanone]
Ki [1]: 3.5 nM

C[C@H](Oc1ccc(C#N)cn1)[C@H]1CCN(C(=O)C2CCN(c3ccc(C#N)cn3)CC2)C[C@@H]1c1ccc(F)c(F)c1 [Example 65, 4-[(3S,4S)-4-[(S)-1-(5-Cyano-pyridin-2-yloxy)-ethyl]-3-(3,4-difluoro-phenyl)-piperidine-1-carbonyl]-3,4,5,6-tetrahydro-2H-[1,2′]bipyridinyl-5′-carbonitrile]
Ki [1]: 0.4 nM

C[C@H](Oc1ccc(C#N)cn1)[C@H]1CCN(C(=O)C2CCN(C(=O)C3(C)CC3)CC2)C[C@@H]1c1ccc(F)c(F)c1 [Example 66, 6-((S)-1-{(3S,4S)-3-(3,4-Difluoro-phenyl)-1-[1-(1-methyl-cyclopropanecarbonyl)-piperidine-4-carbonyl]-piperidin-4-yl}-ethoxy)-nicotinonitrile]
Ki [1]: 4.6 nM

CC(=O)N(C)C1(c2ccccc2)CCN(CCC[C@]2(c3ccc(Cl)c(Cl)c3)CCCN(C(=O)c3ccccc3)C2)CC1 [SR 142,801, Osanetant]
activity on positive symptoms of schizophrenia ([2]; altered behavior, delusion, hallucinations, extreme emotions, excited motor activity, incoherent speech): active
activity in the treatment of negative symptoms ([2]; depression, anhedonia, social isolation or memory and attention deficits): inactive
